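Each compound was tested at five concentrations against cells in 96-well plates for 48 hours. GI50 = concentration required for 50% inhibition of growth.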 The source made the active and inactive calls. Cut-off read from the data, not from the text of the source: active = GI50 up to about 1.1 µM and inactive = higher.
How the values were obtained:
Experiment in all cases: DTP human tumour cell line panel, 48 h
MDA-N = system: MDA-N
RPMI-8226 = system: RPMI-8226
T47D = system: T47D
KM12 = system: KM12
OVCAR-5 = system: OVCAR-5
HOP-62 = system: HOP-62
LOX IMVI = system: LOX IMVI
HCC 2998 = system: HCC 2998
SF-539 = system: SF-539
786-0 = system: 786-0
SR = system: SR
MDA-MB-435 = system: MDA-MB-435
Malme-3M = system: Malme-3M
NCI/ADR-RES = system: NCI/ADR-RES
BT-549 = system: BT-549

Measured: GI50

CCOc1ccccc1-c1nc2c(s1)C(=O)c1ccccc1C2=O
inactive: MDA-N 2.72 µM | RPMI-8226 7.26 µM | T47D 16.9 µM | KM12 15.4 µM | OVCAR-5 19.7 µM | HOP-62 15.4 µM | LOX IMVI 4.37 µM | HCC 2998 14.5 µM | SF-539 16.4 µM | 786-0 16.9 µM | SR 6.24 µM | MDA-MB-435 2.15 µM | Malme-3M 3.68 µM

O=C(/C=C1\Nc2ccc([N+](=O)[O-])cc2N=C1NC12CC3CC(CC(C3)C1)C2)c1ccccc1
inactive: MDA-N > 10 µM | T47D > 10 µM | KM12 > 10 µM | OVCAR-5 > 10 µM | HOP-62 > 10 µM | LOX IMVI > 10 µM | HCC 2998 > 10 µM | SF-539 5.41 µM | 786-0 4.21 µM | MDA-MB-435 > 10 µM | NCI/ADR-RES > 10 µM | Malme-3M > 10 µM

CSc1nc2c(c(=O)[nH]1)N=C(c1ccccc1)CC(c1ccccc1)N2 (stereo not drawn)
inactive: MDA-N 20.7 µM | RPMI-8226 28.5 µM | KM12 14.1 µM | OVCAR-5 31.3 µM | HOP-62 38.8 µM | LOX IMVI 24.8 µM | HCC 2998 29.3 µM | SF-539 23.2 µM | 786-0 38.5 µM | SR 21.1 µM | MDA-MB-435 40.7 µM | NCI/ADR-RES 24.4 µM | Malme-3M 23.4 µM | BT-549 28.5 µM

CC(C)/C(Cl)=N\OC(=O)Nc1cccc(Cl)c1
inactive: MDA-N 14.8 µM | RPMI-8226 4.45 µM | T47D 26.8 µM | KM12 16.5 µM | OVCAR-5 13.5 µM | HOP-62 > 46 µM | LOX IMVI 3.72 µM | HCC 2998 17 µM | SF-539 18.9 µM | 786-0 15.7 µM | SR 2.49 µM | NCI/ADR-RES 10.6 µM | Malme-3M 11.6 µM

COc1cccc2c1-c1c(OC)cccc1SS2
inactive: MDA-N 2.67 µM | RPMI-8226 11.4 µM | KM12 34 µM | OVCAR-5 17.8 µM | HOP-62 47.2 µM | LOX IMVI 10.7 µM | HCC 2998 20.9 µM | SF-539 17.7 µM | 786-0 18.2 µM | SR 16.9 µM | MDA-MB-435 3.73 µM | NCI/ADR-RES 36.6 µM | Malme-3M 18.1 µM | BT-549 27.6 µM

O=C(/C=C\c1ccccc1-c1ccccc1)c1ccccc1
inactive: MDA-N > 100 µM | RPMI-8226 30.8 µM | T47D 15.8 µM | KM12 29.4 µM | OVCAR-5 > 100 µM | HOP-62 > 100 µM | HCC 2998 > 100 µM | SF-539 > 100 µM | 786-0 > 100 µM | SR > 100 µM | MDA-MB-435 > 100 µM | NCI/ADR-RES > 100 µM

CCOP(=O)(OCC)OC1c2[nH]ccc2-c2cc(C(=O)OC)[nH]c2C1OC (stereo not drawn)
inactive: MDA-N > 100 µM | T47D 51.8 µM | KM12 58.7 µM | OVCAR-5 > 100 µM | HOP-62 87.3 µM | LOX IMVI > 100 µM | HCC 2998 > 100 µM | SF-539 > 100 µM | 786-0 > 100 µM | MDA-MB-435 77.4 µM | NCI/ADR-RES > 100 µM | Malme-3M > 100 µM | BT-549 36.5 µM

c1csc(-c2sc(-c3ccsc3)cc2Cc2ccsc2)c1
inactive: MDA-N > 10 µM | RPMI-8226 > 10 µM | T47D > 10 µM | KM12 > 10 µM | HOP-62 > 10 µM | LOX IMVI > 10 µM | HCC 2998 > 10 µM | 786-0 > 10 µM | SR > 10 µM | MDA-MB-435 > 10 µM | Malme-3M > 10 µM

COc1ccc(/C=N/N=C(\N)NO)c(OC)c1OC
inactive: MDA-N 66.5 µM | RPMI-8226 31.6 µM | T47D 28.1 µM | KM12 4.69 µM | OVCAR-5 23.4 µM | HOP-62 32.7 µM | LOX IMVI 23.4 µM | HCC 2998 17.2 µM | SF-539 25.2 µM | 786-0 18.5 µM | SR 25 µM | MDA-MB-435 57.7 µM | NCI/ADR-RES 14 µM | Malme-3M 26.5 µM

CC1CC/C(=C\c2ccc(F)cc2)C2=C1C(c1ccc(F)cc1)NC(=S)N2 (stereo not drawn)
inactive: MDA-N 67.8 µM | RPMI-8226 18.1 µM | T47D 12.9 µM | KM12 24.7 µM | LOX IMVI 48.2 µM | SF-539 > 100 µM | 786-0 63.4 µM | MDA-MB-435 57.7 µM | NCI/ADR-RES 53.6 µM | Malme-3M 36.7 µM | BT-549 35.1 µM

N#CC1=C(N)N2C(=O)/C(=C/c3ccccc3O)N=C2S1
inactive: MDA-N 86.3 µM | RPMI-8226 30.6 µM | T47D > 100 µM | KM12 > 100 µM | OVCAR-5 98.9 µM | HOP-62 > 100 µM | LOX IMVI 53.2 µM | HCC 2998 92.9 µM | SF-539 28.8 µM | 786-0 > 100 µM | SR 23.6 µM | MDA-MB-435 > 100 µM | NCI/ADR-RES > 100 µM | Malme-3M > 100 µM

O=C1CC2(CCN(CC3COc4ccccc4O3)CC2)C(=O)N1N1CCCCCC1 (stereo not drawn)
inactive: RPMI-8226 59.8 µM | T47D 33.7 µM | OVCAR-5 48.5 µM | HOP-62 > 100 µM | LOX IMVI 28.9 µM | SF-539 > 100 µM | 786-0 > 100 µM | SR > 100 µM | MDA-MB-435 40 µM | NCI/ADR-RES 52.7 µM | Malme-3M 94.4 µM | BT-549 61.7 µM

O=C(NN=C1CCN(Cc2ccccc2)CC1)C(O)(c1ccccc1)c1ccccc1
inactive: RPMI-8226 > 100 µM | T47D > 100 µM | KM12 > 100 µM | OVCAR-5 > 100 µM | HOP-62 > 100 µM | LOX IMVI > 100 µM | HCC 2998 > 100 µM | SF-539 > 100 µM | 786-0 > 100 µM | SR > 100 µM | MDA-MB-435 > 100 µM | NCI/ADR-RES > 100 µM | Malme-3M > 100 µM

Cc1cc(NN)nc2[nH]nc(N)c12
inactive: RPMI-8226 > 100 µM | T47D > 100 µM | KM12 > 100 µM | OVCAR-5 > 100 µM | HOP-62 > 100 µM | LOX IMVI > 100 µM | SF-539 > 100 µM | 786-0 > 100 µM | SR 69.5 µM | MDA-MB-435 93.1 µM | NCI/ADR-RES > 100 µM | Malme-3M > 100 µM | BT-549 > 100 µM

CSC(=S)Nc1cc(C)ccn1
inactive: MDA-N > 100 µM | RPMI-8226 97.7 µM | T47D 58.9 µM | KM12 > 100 µM | OVCAR-5 > 100 µM | HOP-62 > 100 µM | LOX IMVI > 100 µM | HCC 2998 > 100 µM | SF-539 > 100 µM | 786-0 75.2 µM | SR 78.2 µM | MDA-MB-435 > 100 µM | NCI/ADR-RES 60.5 µM | Malme-3M 61.4 µM

CC(=O)NC(Cc1ccc(OP(=O)(OCc2ccc([N+](=O)[O-])o2)N(C)CCCCCl)cc1)C(=O)NC(C)c1ccc(OCC2CCCCC2)c(C(N)=O)c1 (stereo not drawn)
inactive: MDA-N 2.24 µM | RPMI-8226 1.72 µM | T47D 2.76 µM | KM12 2.68 µM | OVCAR-5 7.35 µM | HOP-62 9.66 µM | LOX IMVI 1.97 µM | HCC 2998 1.82 µM | SF-539 2.08 µM | 786-0 3.37 µM | SR 2.21 µM | MDA-MB-435 2.31 µM | NCI/ADR-RES 31.2 µM | Malme-3M 1.88 µM

COc1ccc(C(=O)/C=C/c2ccc(OCCSCCCCCCCCCCSCCOc3ccc(/C=C/C(=O)c4ccc(OC)c(OC)c4)cc3)cc2)cc1OC
inactive: MDA-N > 100 µM | RPMI-8226 > 100 µM | T47D > 100 µM | KM12 > 100 µM | HOP-62 > 100 µM | LOX IMVI > 100 µM | HCC 2998 > 100 µM | SF-539 > 100 µM | 786-0 > 100 µM | SR > 100 µM | MDA-MB-435 > 100 µM | Malme-3M > 100 µM | BT-549 > 100 µM

COc1ccc(/C=C2\N/C(=N/N)N=C2Cl)cc1
inactive: MDA-N > 100 µM | RPMI-8226 > 100 µM | T47D > 100 µM | KM12 > 100 µM | OVCAR-5 > 100 µM | HOP-62 > 100 µM | LOX IMVI > 100 µM | HCC 2998 > 100 µM | SF-539 > 100 µM | 786-0 > 100 µM | SR > 100 µM | MDA-MB-435 > 100 µM | NCI/ADR-RES > 100 µM | Malme-3M > 100 µM

C#CCOC(=O)C(N)CS (stereo not drawn)
inactive: MDA-N > 100 µM | RPMI-8226 > 100 µM | T47D > 100 µM | KM12 > 100 µM | OVCAR-5 > 100 µM | HOP-62 > 100 µM | LOX IMVI > 100 µM | 786-0 > 100 µM | MDA-MB-435 > 100 µM | NCI/ADR-RES > 100 µM | Malme-3M > 100 µM | BT-549 > 100 µM

CCC(CCCCC1CC[C@H]2CC(=O)C[C@@H]12)OC (stereo partly drawn)
inactive: T47D > 100 µM | OVCAR-5 > 100 µM | LOX IMVI > 100 µM | HCC 2998 > 100 µM | SF-539 > 100 µM | 786-0 > 100 µM | NCI/ADR-RES 71.1 µM | BT-549 > 100 µM

CN(C)Cc1cc(C(=O)/C=C/c2ccc(Cl)cc2Cl)cc(CN(C)C)c1O
inactive: MDA-N 1.88 µM | RPMI-8226 3.85 µM | T47D 5.01 µM | KM12 1.47 µM | OVCAR-5 15.2 µM | HOP-62 3.54 µM | LOX IMVI 1.2 µM | HCC 2998 5.89 µM | SF-539 4.4 µM | 786-0 3.77 µM | SR 4.03 µM | MDA-MB-435 4.06 µM | NCI/ADR-RES 1.75 µM | Malme-3M 8.85 µM

— ChEMBL document CHEMBL1201862, “PubChem BioAssay data set” (2004)
